Counter-ions that a name gives are not always drawn.
Legend:
[1] = target: human mPGES-1 (Homo sapiens (Human), UniProt O14684); test: mPGES-1 inhibitory activity test; format: biochemical; conditions: microsomes of CHO-K1 cells expressing human mPGES-1, PGH2 1 μM, PGE2 by HTRF; read-out: mPGES-1 inhibition (IC50 nM)
Experimental: mPGES-1 microsomal specimens were prepared by transiently transfecting CHO-K1 cells (DS Pharma Biomedical Co. Ltd) with a plasmid encoding human mPGES-1 cDNA using FuGENE 6 Transfection Reagent (Promega). The prepared mPGES-1 microsome specimens were diluted in potassium phosphate buffer of pH 7.4 comprising 2.5 mM reduced glutathione (Sigma-Aldrich), DMSO solution of a test compound or DMSO was added to a final concentration of 1% of DMSO, and then incubated at 4° C. for 20 minutes. The enzymatic reaction was then initiated by adding a solution of PGH2 (Cayman chemical) substrate of a final concentration 1 μM and incubated at 4° C. for 60 seconds. The reaction was terminated by adding a solution of ferric chloride (STREM CHEMICALS) and citric acid (Wako Pure Chemical Industries) salt to a final concentration of 5 mg/mL and 250 mM, respectively. The formed PGE2 was quantified using the HTRF kit (Cisbio International). Solutions without the test compound were used as positive controls, and solutions without the test compound and microsomal specimens were used as negative controls. 100% activity was defined as production of PGE2 in the positive control minus that in the negative control. The percentage inhibition of production of PGE2 at final concentrations of 10 nM and 100 nM of the test compound was then calculated, or IC50 values were determined using standard methods.

[2] = system: human A549 cells; test: Inhibition test of PGE2 production using human A549 cells; format: cell-based; conditions: IL-1β stimulated A549 cells, 24 h, PGE2 by HTRF, read-out: A549 cell inhibition of PGE2 production IC50
Experimental: 100 μL of RPMI medium (Sigma) comprising 10% FBS and human A549 cells was seeded in a 96-well plate to […] cells per well, and incubated overnight. The medium was then removed and washed with phosphate-buffered saline, and added to a DMSO solution of the test compound or RPMI medium comprising 3% FBS with DMSO to a final concentration of 0.1% DMSO. After incubation for 60 minutes, IL-1P (5 ng/well, BioLegend) was added to the solution. After incubation at 37° C. for 24 h, PGE2 in the medium was quantified using the HTRF kit (Cisbio International) and PGF2a was also quantified using the EIA kit (Cayman chemical). Solutions without the test compound were used as positive controls, and solutions without the test compound and IL-1β were used as negative controls. 100% activity was defined as production of PGE2 and PGF2a in the positive control minus those in the negative control. IC50 values were then determined using standard methods.

Sequence of human mPGES-1 (O14684 whole entry): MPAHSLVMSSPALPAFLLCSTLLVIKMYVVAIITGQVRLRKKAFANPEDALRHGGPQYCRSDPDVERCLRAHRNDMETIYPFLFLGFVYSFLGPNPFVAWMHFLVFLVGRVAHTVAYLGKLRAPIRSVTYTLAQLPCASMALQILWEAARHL

SMILES | IC50 [1] [nM] | IC50 [2] [nM]
O=C(Nc1cccc2c1cnn2-c1ccc(C(F)(F)F)cc1)c1cc(CNC(=O)C2(C(F)(F)F)CC2)ccc1Cl [Example 26, 2-Chloro-5-[({[1-(trifluoromethyl)cyclopropyl]carbonyl}amino)methyl]-N-{1-[4-(trifluoromethyl)phenyl]-1H-indazol-4-yl}benzamide] | 1.6 | 2.3
O=C(Nc1cccc2c1cnn2-c1ccc(C(F)(F)F)cc1)c1cc(CNC(=O)C2(O)CC2)ccc1Cl [Example 27] | 10 | 4.4
CC(C)(CO)C(=O)NCc1ccc(Cl)c(C(=O)Nc2cccc3c2cnn3-c2ccc(C(F)(F)F)cc2)c1 [Example 28, 2-Chloro-5-{[(3-hydroxy-2,2-dimethylpropanoyl)amino]methyl}-N-{1-[4-(trifluoromethyl)phenyl]-1H-indazol-4-yl}benzamide] | 1.9 | 5.8
O=C(Nc1cccc2c1cnn2-c1ccc(C(F)(F)F)cc1)c1cc(CNC(=O)C2CCC2)ccc1Cl [Example 29, 2-Chloro-5-{[(cyclobutylcarbonyl)amino]methyl}-N-{1-[4-(trifluoromethyl)phenyl]-1H-indazol-4-yl}benzamide] | 4.5 | 6.7
O=C(Nc1cccc2c1cnn2-c1ccc(C(F)(F)F)cc1)c1cc(CNC(=O)C2CCCC2)ccc1Cl [Example 30, 2-Chloro-5-{[(cyclopentylcarbonyl)amino]methyl}-N-{1-[4-(trifluoromethyl)phenyl]-1H-indazol-4-yl}benzamide] | 5.5 | 2.6
O=C(Nc1cccc2c1cnn2-c1ccc(C(F)(F)F)cc1)c1cc(CNC(=O)C2CCCCC2)ccc1Cl [Example 31, 2-Chloro-5-{[(cyclohexylcarbonyl)amino]methyl}-N-{1-[4-(trifluoromethyl)phenyl]-1H-indazol-4-yl}benzamide] | 1.6 | 5.5
O=C(Nc1cccc2c1cnn2-c1ccc(C(F)(F)F)cc1)c1cc(CNC(=O)C23CC4CC(CC(C4)C2)C3)ccc1Cl [Example 32, N-[4-chloro-3-({1-[4-(trifluoromethyl)phenyl]-1H-indazol-4-yl}carbamoyl)benzyl]tricyclo[3.3.1.1^3,]decane-1-carboxamide] | 23 | 12.1
O=C(Nc1cccc2c1cnn2-c1ccc(C(F)(F)F)cc1)c1cc(CNC(=O)C2CCCO2)ccc1Cl (centres unmarked) [Example 33, N-[4-chloro-3-({1-[4-(trifluoromethyl)phenyl]-1H-indazol-4-yl}carbamoyl)benzyl]-tetrahydrofuran-2-carboxamide] | 18 | 41.4
O=C(Nc1cccc2c1cnn2-c1ccc(C(F)(F)F)cc1)c1cc(CNC(=O)C2CCOC2)ccc1Cl (centres unmarked) [Example 34, N-[4-chloro-3-({1-[4-(trifluoromethyl)phenyl]-1H-indazol-4-yl}carbamoyl)benzyl]-tetrahydrofuran-3-carboxamide] | 31 | 20.7
CN(C)CCC(=O)NCc1ccc(Cl)c(C(=O)Nc2cccc3c2cnn3-c2ccc(C(F)(F)F)cc2)c1 [Example 35, 2-Chloro-5-{[(N,N-dimethyl-p-alanyl)amino]methyl}-N-{1-[4-(trifluoromethyl)phenyl]-1H-indazol-4-yl}benzamide hydrochloride] | 116 | 933
CC(C)(C)OC(=O)N1CCC(C(=O)NCc2ccc(Cl)c(C(=O)Nc3cccc4c3cnn4-c3ccc(C(F)(F)F)cc3)c2)CC1 [Example 36, tert-Butyl 4-{[4-chloro-3-({1-[4-(trifluoromethyl)phenyl]-1H-indazol-4-yl}carbamoyl)benzyl]carbamoyl}piperidine-1-carboxylate] | 1.4 | 1.7
O=C(CC(F)(F)F)NCc1ccc(Cl)c(C(=O)Nc2cccc3c2cnn3-c2ccc(C(F)(F)F)cc2)c1 [Example 37, 2-Chloro-N-{1-[4-(trifluoromethyl)phenyl]-1H-indazol-4-yl}-5-{[(3,3,3-trifluoropropanoyl)amino]methyl}benzamide] | 8.9 | 2.5
O=C(CC1CC1)NCc1ccc(Cl)c(C(=O)Nc2cccc3c2cnn3-c2ccc(C(F)(F)F)cc2)c1 [Example 38, 2-Chloro-5-{[(cyclopropylacetyl)amino]methyl}-N-{1-[4-(trifluoromethyl)phenyl]-1H-indazol-4-yl}benzamide] | 5.7 | 7.5
O=C(Nc1cccc2c1cnn2-c1ccc(C(F)(F)F)cc1)c1cc(CNC(=O)[C@H]2CC[C@H](O)CC2)ccc1Cl [Example 39, 2-Chloro-5-({[trans-(4-hydroxycyclohexyl)carbonyl]amino}methyl)-N-{1-[4-(trifluoromethyl)phenyl]-1H-indazol-4-yl}benzamide] | 7.5 | 5.1
O=C(Nc1cccc2c1cnn2-c1ccc(C(F)(F)F)cc1)c1cc(CNC(=O)[C@H]2CC[C@@H](O)CC2)ccc1Cl [Example 40, 2-Chloro-5-({[cis-(4-hydroxycyclohexyl)carbonyl]amino}methyl)-N-{1-[4-(trifluoromethyl)phenyl]-1H-indazol-4-yl}benzamide] | 19.1 | 60.2
CCC(O)(CC)C(=O)NCc1ccc(Cl)c(C(=O)Nc2cccc3c2cnn3-c2ccc(C(F)(F)F)cc2)c1 [Example 41, 2-Chloro-5-{[(2-ethyl-2-hydroxybutanoyl)amino]methyl}-N-{1-[4-(trifluoromethyl)phenyl]-1H-indazol-4-yl}benzamide] | 1 | 13.7

Results, then the compound that gave them:

IC50 [1] [nM] | IC50 [2] [nM] | SMILES
2.3 | 13.5 | CCCC(=O)NCc1ccc(Cl)c(C(=O)Nc2cccc3c2cnn3-c2ccc(C(F)(F)F)cc2)c1 [Example 43, 5-[(Butanoylamino)methyl]-2-chloro-N-{1-[4-(trifluoromethyl)phenyl]-1H-indazol-4-yl}benzamide]
7.2 | 151 | O=C(Cc1ccccc1)NCc1ccc(Cl)c(C(=O)Nc2cccc3c2cnn3-c2ccc(C(F)(F)F)cc2)c1 [Example 44, 2-Chloro-5-{[(phenylacetyl)amino]methyl}-N-{1-[4-(trifluoromethyl)phenyl]-1H-indazol-4-yl}benzamide]
1.2 | 37.6 | O=C(NCc1ccc(Cl)c(C(=O)Nc2cccc3c2cnn3-c2ccc(C(F)(F)F)cc2)c1)c1ccco1 [Example 45, N-[4-chloro-3-({1-[4-(trifluoromethyl)phenyl]-1H-indazol-4-yl}carbamoyl)benzyl]furan-2-carboxamide]
3 | 14.3 | O=C(CC1CCCC1)NCc1ccc(Cl)c(C(=O)Nc2cccc3c2cnn3-c2ccc(C(F)(F)F)cc2)c1 [Example 46, 2-Chloro-5-{[(cyclopentylacetyl)amino]methyl}-N-{1-[4-(trifluoromethyl)phenyl]-1H-indazol-4-yl}benzamide]
8 | 8.5 | COCCC(=O)NCc1ccc(Cl)c(C(=O)Nc2cccc3c2cnn3-c2ccc(C(F)(F)F)cc2)c1 [Example 47, 2-Chloro-5-{[(3-methoxypropanoyl)amino]methyl}-N-{1-[4-(trifluoromethyl)phenyl]-1H-indazol-4-yl}benzamide]
3.3 | 4 | COc1ccc(-n2ncc3c(NC(=O)c4cc(CNC(=O)C(C)(C)C)ccc4Cl)cccc32)cc1 [Example 48, 2-Chloro-5-{[(2,2-dimethylpropanoyl)amino]methyl}-N-[1-(4-methoxyphenyl)-1H-indazol-4-yl]benzamide]
9.9 | 0.9 | COc1cccc(-n2ncc3c(NC(=O)c4cc(CNC(=O)C(C)(C)C)ccc4Cl)cccc32)c1 [Example 49, 2-Chloro-5-{[(2,2-dimethylpropanoyl)amino]methyl}-N-[1-(3-methoxyphenyl)-1H-indazol-4-yl]benzamide]
14.7 | 3.5 | CC(C)(C)C(=O)NCc1ccc(Cl)c(C(=O)Nc2cccc3c2cnn3-c2ccc(C(F)(F)F)cc2)c1 [Example 50, 2-Chloro-5-{[(2,2-dimethylpropanoyl)amino]methyl}-N-{1-[4-(trifluoromethyl)phenyl]-1H-indazol-4-yl}benzamide]
5 | 112 | CC(C)(C)C(=O)NCc1ccc(Cl)c(C(=O)Nc2cccc3c2cnn3-c2ccc(OC(F)(F)F)cc2)c1 [Example 51, 2-Chloro-5-{[(2,2-dimethylpropanoyl)amino]methyl}-N-{1-[4-(trifluoromethoxy)phenyl]-1H-indazol-4-yl}benzamide]
